Assay results reported in patent publication US10328012B2, “Methods for treating skin” (AVON PRODUCTS, INC., priority 2015, dated 2019).
“Also recorded” adds a separate entry of the source.

Key:
[1] = system: human dermal fibroblast (HDF) cells; test: HA in human dermal fibroblasts, daily vs pulsed treatment (Example 17); format: cell-based; conditions: 12 days; pulsed uses half as much active
Experimental: A series of experiments was conducted to assess the effects of different treatment regimens of active ingredients shown in Table 9 on the production of hyaluronic acid (HA) in human dermal fibroblast (HDF) cells. Two different treatment regimens were assessed: (1) active ingredient A applied to cells for 12 consecutive days; and (2) active ingredient applied to cells for 2 consecutive days followed by application of media not containing active ingredient for two consecutive days repeatedly until treatment is applied for 12 consecutive days. […] After reaching about 75% confluence, cells were transferred into DMEM media without FBS, and incubated for 4-6 hours. Different wells were assigned to one of treatment regimens (1)-(2) as described above, with six wells allocated to each treatment regimen. All active ingredients were prepared as emulsions and applied directly to the HDF cells. The specific active ingredients used in each of the two treatment regimens are provided below in Table 10. Following treatment, cells were collected and the amount of hyaluronic acid (HA) secreted from the cells was measured using a commercially available HA assay (available from […] Inc., CO).

[2] = system: Human dermal fibroblast cells; test: Pro-collagen I secreted by human dermal fibroblasts, HTRF human pro-collagen I kit (Example 1); format: cell-based; conditions: 0.0001% phytol alone or 1 μM retinol alone for 16 days; decline after day 13 despite continuing treatment
Experimental: Human dermal fibroblast cells were grown in a 6-well plate in DMEM media (available from CORNING, N.Y.) supplemented with 10% Fetal Bovine Serum (FBS) and L-glutamine (1.5×10^5 cells/plate) overnight. After reaching about 75% confluence, cells were transferred into DMEM media without FBS and incubated for 4-6 hours. Next, the cells were treated with either 0.0001% phytol or 1 μM retinol. Treatment with either phytol alone, or retinol alone was performed in DMEM media without FBS for 16 days. For sequential treatments, the cells were treated with 0.0001% phytol for 6 days followed by 1 μM retinol for 10 days, or with 1 μM retinol for 6 days, followed by 0.0001% phytol for 10 days. Every other day, media were collected and cells were re-treated with phytol or retinol in the same fashion. After treatment, the amount of collagen secreted into the culture media was determined using the HTRF human pro-collagen I kit (available from CISBIO, Inc).

Row | Structure (SMILES) | production of hyaluronic acid, pulsed treatment compared with daily treatment [1] | pro-collagen I production as a function of treatment time [2]
1 | O=C(O)CO [Glycolic Acid] | only slightly less effective | 
2 | C/C(=C\CO)CCC[C@H](C)CCC[C@H](C)CCCC(C)C [Phytol] | significantly more production of hyaluronic acid | declines; also recorded: plateau in effectiveness over time
3 | CC1=C(/C=C/C(C)=C/C=C/C(C)=C/CO)C(C)(C)CCC1 [Retinol, reference compound] | significantly more production of hyaluronic acid | declines; also recorded: plateau in effectiveness over time
